Test results reported in patent US9340590B2 (priority 2011, dated 2016).
Like-named read-outs stand apart in the source and are kept apart here. Positions of bridges follow the written chain, without caps; N, C: chain ends. Residues, ends and D or L forms follow the SMILES beside them.

Key:
hNav1.3 = hNav1.3 (Homo sapiens, UniProt Q9NY46); test: cell-based; details: IonWorks Quattro; clamped to −110 mV, depolarized to −10 mV, 5 min after compound; n=2; read-out: IWQ Use Nav1.3
hNav1.5 = hNav1.5 (Homo sapiens, UniProt Q14524); test: cell-based
hNav1.5, sequence (Q14524 whole entry, looked up): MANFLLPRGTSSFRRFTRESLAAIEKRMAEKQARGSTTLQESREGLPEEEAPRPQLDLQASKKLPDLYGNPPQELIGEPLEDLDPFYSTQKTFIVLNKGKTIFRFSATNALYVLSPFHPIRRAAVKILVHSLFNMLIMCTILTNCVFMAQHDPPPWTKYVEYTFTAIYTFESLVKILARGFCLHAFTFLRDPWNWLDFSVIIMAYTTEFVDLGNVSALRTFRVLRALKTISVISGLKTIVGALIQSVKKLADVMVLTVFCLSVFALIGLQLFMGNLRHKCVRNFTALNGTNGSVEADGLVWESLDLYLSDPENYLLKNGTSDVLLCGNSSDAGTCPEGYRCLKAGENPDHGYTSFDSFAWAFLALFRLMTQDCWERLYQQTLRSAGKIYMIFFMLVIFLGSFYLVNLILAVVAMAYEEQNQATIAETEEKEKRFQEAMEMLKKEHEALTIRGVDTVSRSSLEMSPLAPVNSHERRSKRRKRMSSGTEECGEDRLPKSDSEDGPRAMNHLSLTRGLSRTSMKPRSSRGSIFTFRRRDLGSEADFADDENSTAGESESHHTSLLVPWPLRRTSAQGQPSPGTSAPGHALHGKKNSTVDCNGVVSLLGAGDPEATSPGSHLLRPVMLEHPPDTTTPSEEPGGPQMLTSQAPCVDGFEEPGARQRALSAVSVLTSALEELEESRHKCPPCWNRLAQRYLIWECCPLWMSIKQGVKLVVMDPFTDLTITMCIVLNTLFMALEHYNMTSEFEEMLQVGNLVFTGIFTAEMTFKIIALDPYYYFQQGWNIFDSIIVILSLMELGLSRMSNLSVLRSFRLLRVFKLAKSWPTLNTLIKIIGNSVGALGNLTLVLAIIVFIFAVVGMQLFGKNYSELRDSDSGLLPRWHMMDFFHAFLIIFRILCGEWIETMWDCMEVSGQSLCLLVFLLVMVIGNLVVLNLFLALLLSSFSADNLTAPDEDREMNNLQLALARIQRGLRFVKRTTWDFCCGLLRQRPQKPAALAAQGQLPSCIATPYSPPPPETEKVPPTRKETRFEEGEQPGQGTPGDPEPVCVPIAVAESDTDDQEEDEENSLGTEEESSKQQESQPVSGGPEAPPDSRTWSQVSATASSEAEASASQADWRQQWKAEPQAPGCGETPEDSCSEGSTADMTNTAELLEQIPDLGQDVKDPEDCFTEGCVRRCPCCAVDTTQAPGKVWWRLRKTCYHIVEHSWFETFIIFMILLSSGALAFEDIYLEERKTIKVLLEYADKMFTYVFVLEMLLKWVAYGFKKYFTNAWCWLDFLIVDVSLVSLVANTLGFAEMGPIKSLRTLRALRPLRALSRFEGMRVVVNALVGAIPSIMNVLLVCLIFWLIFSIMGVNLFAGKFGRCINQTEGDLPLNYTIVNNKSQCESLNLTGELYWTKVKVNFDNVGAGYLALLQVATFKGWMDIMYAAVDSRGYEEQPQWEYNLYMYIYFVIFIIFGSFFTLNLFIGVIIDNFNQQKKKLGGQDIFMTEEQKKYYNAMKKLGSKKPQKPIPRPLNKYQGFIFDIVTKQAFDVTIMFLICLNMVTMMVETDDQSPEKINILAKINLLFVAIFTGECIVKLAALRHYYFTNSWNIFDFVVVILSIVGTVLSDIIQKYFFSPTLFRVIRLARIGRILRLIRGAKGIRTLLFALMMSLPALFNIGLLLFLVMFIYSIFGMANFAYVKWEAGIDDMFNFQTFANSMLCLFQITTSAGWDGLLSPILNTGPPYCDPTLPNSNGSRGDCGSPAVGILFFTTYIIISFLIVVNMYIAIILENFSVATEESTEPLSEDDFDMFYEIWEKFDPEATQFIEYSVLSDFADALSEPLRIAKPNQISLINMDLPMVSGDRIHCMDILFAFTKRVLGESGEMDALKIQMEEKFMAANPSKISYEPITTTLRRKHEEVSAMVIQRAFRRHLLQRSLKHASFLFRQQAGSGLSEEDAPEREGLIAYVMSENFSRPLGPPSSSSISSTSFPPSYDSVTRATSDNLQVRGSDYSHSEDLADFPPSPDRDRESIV

[1] = IonWorks Quattro, clamped to −110 mV, depolarized to −10 mV, 5 min after compound, n=2, read-out: IWQ Use Nav1.5

hNav1.3, sequence (Q9NY46 whole entry, looked up): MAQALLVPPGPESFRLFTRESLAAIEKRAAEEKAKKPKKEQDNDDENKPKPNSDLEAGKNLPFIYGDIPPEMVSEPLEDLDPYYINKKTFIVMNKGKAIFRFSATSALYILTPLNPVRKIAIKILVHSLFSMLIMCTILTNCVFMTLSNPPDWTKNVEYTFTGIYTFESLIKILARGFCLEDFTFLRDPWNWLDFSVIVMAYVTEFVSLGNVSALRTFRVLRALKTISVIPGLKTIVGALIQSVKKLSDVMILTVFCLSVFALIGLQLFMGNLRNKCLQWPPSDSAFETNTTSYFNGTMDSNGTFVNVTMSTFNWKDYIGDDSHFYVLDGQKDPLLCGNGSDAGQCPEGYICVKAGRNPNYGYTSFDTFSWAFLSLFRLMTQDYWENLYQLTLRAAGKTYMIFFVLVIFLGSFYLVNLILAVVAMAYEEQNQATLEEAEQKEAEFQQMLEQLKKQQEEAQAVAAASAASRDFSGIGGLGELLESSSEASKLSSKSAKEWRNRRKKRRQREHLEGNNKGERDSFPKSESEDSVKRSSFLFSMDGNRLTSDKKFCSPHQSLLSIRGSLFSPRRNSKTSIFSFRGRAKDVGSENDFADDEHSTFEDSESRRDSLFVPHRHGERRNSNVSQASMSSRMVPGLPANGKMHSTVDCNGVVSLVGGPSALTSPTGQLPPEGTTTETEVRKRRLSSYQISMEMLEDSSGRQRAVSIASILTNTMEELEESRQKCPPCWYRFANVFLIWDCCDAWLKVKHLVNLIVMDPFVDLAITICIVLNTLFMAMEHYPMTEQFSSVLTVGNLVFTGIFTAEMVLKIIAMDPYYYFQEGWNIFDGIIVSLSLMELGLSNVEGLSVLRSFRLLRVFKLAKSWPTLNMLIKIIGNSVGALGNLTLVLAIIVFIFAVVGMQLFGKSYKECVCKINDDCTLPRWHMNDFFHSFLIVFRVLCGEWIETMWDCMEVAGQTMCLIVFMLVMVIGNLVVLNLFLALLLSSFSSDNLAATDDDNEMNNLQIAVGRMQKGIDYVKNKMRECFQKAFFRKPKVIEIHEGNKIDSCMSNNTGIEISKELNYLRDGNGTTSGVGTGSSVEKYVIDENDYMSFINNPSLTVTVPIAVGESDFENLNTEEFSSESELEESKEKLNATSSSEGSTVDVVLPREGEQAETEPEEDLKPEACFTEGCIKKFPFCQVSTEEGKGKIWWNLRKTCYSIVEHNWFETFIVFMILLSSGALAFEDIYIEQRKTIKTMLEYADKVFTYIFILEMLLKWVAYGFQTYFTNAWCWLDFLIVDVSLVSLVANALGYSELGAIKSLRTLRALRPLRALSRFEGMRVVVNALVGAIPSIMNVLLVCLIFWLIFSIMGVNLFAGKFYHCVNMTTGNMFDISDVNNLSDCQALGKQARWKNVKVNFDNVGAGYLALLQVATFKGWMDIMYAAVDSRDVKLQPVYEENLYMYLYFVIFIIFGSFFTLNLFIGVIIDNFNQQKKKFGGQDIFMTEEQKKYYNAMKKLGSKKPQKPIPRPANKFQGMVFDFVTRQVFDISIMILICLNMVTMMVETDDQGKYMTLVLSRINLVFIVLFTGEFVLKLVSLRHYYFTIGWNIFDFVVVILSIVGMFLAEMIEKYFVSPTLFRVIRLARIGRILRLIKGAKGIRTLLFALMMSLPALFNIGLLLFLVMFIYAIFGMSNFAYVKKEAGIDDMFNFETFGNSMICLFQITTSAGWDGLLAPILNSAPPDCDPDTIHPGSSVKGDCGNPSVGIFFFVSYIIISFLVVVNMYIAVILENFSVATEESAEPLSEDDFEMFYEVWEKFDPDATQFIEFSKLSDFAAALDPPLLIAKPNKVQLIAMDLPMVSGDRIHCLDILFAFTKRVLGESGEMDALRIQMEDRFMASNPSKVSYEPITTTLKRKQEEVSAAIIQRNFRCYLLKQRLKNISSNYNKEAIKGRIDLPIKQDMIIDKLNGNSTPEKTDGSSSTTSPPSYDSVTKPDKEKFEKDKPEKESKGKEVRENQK

`CC[C@H](C)[C@@H]1NC(=O)[C@@H]2CSSC[C@@H]3NC(=O)[C@H](C(C)C)NC(=O)[C@H](CC(C)C)NC(=O)[C@H](CC(N)=O)NC(=O)[C@@H]4CCCN4C(=O)[C@H](CCCNC(=N)N)NC(=O)[C@H](CSSC[C@H](NC(=O)[C@@H](N)CCC(=O)O)C(=O)N[C@@H](CC(C)C)C(=O)NCC(=O)N[C@@H](Cc4ccccc4)C(=O)N[C@@H](CCSC)C(=O)N[C@@H](CCCNC(=N)N)C(=O)N[C@@H](CCCCN)C(=O)N2)NC(=O)[C@H](CSSC[C@@H](C(=O)N[C@@H](CCCCN)C(=O)N[C@@H](Cc2ccc(O)cc2)C(=O)N[C@H](C(=O)N[C@@H](Cc2ccccc2)C(N)=O)C(C)C)NC(=O)[C@H](Cc2c[nH]c4ccccc24)NC(=O)[C@H](CCCCN)NC(=O)[C@H](Cc2cnc[nH]2)NC(=O)[C@H]([C@@H](C)O)NC(=O)[C@H](CCCNC(=N)N)NC(=O)[C@H](CO)NC3=O)NC(=O)[C@H](CCCCN)NC(=O)[C@H](CC(=O)O)NC(=O)[C@H](CC(N)=O)NC(=O)[C@H](CC(=O)O)NC(=O)[C@@H]2CCCN2C1=O` [SEQ ID NO: 18] (H-ECLGFMRKCIPDNDKCCRPNLVCSRTHKWCKYVF-NH2; disulfide 2-17, 9-23, 16-30) was tested, and the IC50 (hNav1.3) was 0.15 µM and the IC50 (hNav1.5; [1]) was 14.2 µM.
In the case of `CC[C@H](C)[C@@H]1NC(=O)[C@@H]2CSSC[C@@H]3NC(=O)[C@H](C(C)C)NC(=O)[C@H](CC(C)C)NC(=O)[C@H](CC(N)=O)NC(=O)[C@@H]4CCCN4C(=O)[C@H](CCCNC(=N)N)NC(=O)[C@H](CSSC[C@H](NC(=O)[C@H](C)N)C(=O)N[C@@H](CC(C)C)C(=O)NCC(=O)N[C@@H](Cc4ccccc4)C(=O)N[C@@H](CCSC)C(=O)N[C@@H](CCCNC(=N)N)C(=O)N[C@@H](CCCCN)C(=O)N2)NC(=O)[C@H](CSSC[C@@H](C(=O)N[C@@H](CCCCN)C(=O)N[C@@H](Cc2ccc(O)cc2)C(=O)N[C@H](C(=O)N[C@@H](Cc2ccccc2)C(N)=O)C(C)C)NC(=O)[C@H](Cc2c[nH]c4ccccc24)NC(=O)[C@H](CCCCN)NC(=O)[C@H](Cc2cnc[nH]2)NC(=O)[C@H]([C@@H](C)O)NC(=O)[C@H](CCCNC(=N)N)NC(=O)[C@H](CO)NC3=O)NC(=O)[C@H](CCCCN)NC(=O)[C@H](CC(=O)O)NC(=O)[C@H](CC(N)=O)NC(=O)[C@H](CC(=O)O)NC(=O)[C@@H]2CCCN2C1=O` [SEQ ID NO: 20] (H-ACLGFMRKCIPDNDKCCRPNLVCSRTHKWCKYVF-NH2; disulfide 2-17, 9-23, 16-30), the IC50 (hNav1.3) is reported as 0.08 µM and the IC50 (hNav1.5; [1]) is reported as 9.86 µM.
`CC[C@H](C)[C@@H]1NC(=O)[C@@H]2CSSC[C@@H]3NC(=O)[C@H](C(C)C)NC(=O)[C@H](CC(C)C)NC(=O)[C@H](CC(N)=O)NC(=O)[C@@H]4CCCN4C(=O)[C@H](CCCNC(=N)N)NC(=O)[C@H](CSSC[C@H](NC(=O)[C@@H](N)CC(=O)O)C(=O)N[C@@H](CC(C)C)C(=O)NCC(=O)N[C@H](Cc4ccccc4)C(=O)N[C@@H](CCSC)C(=O)N[C@@H](CCCNC(=N)N)C(=O)N[C@@H](CCCCN)C(=O)N2)NC(=O)[C@H](CSSC[C@@H](C(=O)N[C@@H](CCCCN)C(=O)N[C@@H](Cc2ccc(O)cc2)C(=O)N[C@H](C(=O)N[C@@H](Cc2ccccc2)C(N)=O)C(C)C)NC(=O)[C@H](Cc2c[nH]c4ccccc24)NC(=O)[C@H](CCCCN)NC(=O)[C@H](Cc2c[nH]cn2)NC(=O)[C@H]([C@@H](C)O)NC(=O)[C@H](CCCNC(=N)N)NC(=O)[C@H](CO)NC3=O)NC(=O)[C@H](CCCCN)NC(=O)[C@H](CC(=O)O)NC(=O)[C@H](CC(N)=O)NC(=O)[C@H](CC(=O)O)NC(=O)[C@@H]2CCCN2C1=O` [SEQ ID NO: 273] was tested, and the IC50 (hNav1.5; IWQ Use Nav1.5) was greater than 5 µM.
In the case of `CC[C@H](C)[C@@H]1NC(=O)[C@@H]2CSSC[C@@H]3NC(=O)[C@H](C(C)C)NC(=O)[C@H](CC(C)C)NC(=O)[C@H](CC(N)=O)NC(=O)[C@@H]4CCCN4C(=O)[C@H](CCCNC(=N)N)NC(=O)[C@H](CSSC[C@H](NC(=O)[C@@H](N)CC(=O)O)C(=O)N[C@@H](CC(C)C)C(=O)NCC(=O)N[C@@H](Cc4ccccc4)C(=O)N[C@@H](CCSC)C(=O)N[C@@H](CCCNC(=N)N)C(=O)N[C@@H](CCCCN)C(=O)N2)NC(=O)[C@H](CSSC[C@@H](C(=O)N[C@@H](CCCCN)C(=O)N[C@@H](Cc2ccc(O)cc2)C(=O)N[C@H](C(=O)N[C@@H](Cc2ccccc2)C(N)=O)C(C)C)NC(=O)[C@H](Cc2c[nH]c4ccccc24)NC(=O)[C@H](CCC(N)=O)NC(=O)[C@H](Cc2c[nH]cn2)NC(=O)[C@H]([C@@H](C)O)NC(=O)[C@H](CCCNC(=N)N)NC(=O)[C@H](CO)NC3=O)NC(=O)[C@H](CCCCN)NC(=O)[C@H](CC(=O)O)NC(=O)[C@H](CC(N)=O)NC(=O)[C@H](CC(=O)O)NC(=O)[C@@H]2CCCN2C1=O` [SEQ ID NO: 763, [Gln28]GpTx-1] (H-DCLGFMRKCIPDNDKCCRPNLVCSRTHQWCKYVF-NH2; disulfide 2-17, 9-23, 16-30), the IC50 (hNav1.5; read-out: IWQ Use Nav1.5) is reported as 22.7 µM.
`CC[C@@H](C)[C@H]1NC(=O)[C@H]2CSSC[C@H]3NC(=O)[C@@H](C(C)C)NC(=O)[C@@H](CC(C)C)NC(=O)[C@@H](CC(N)=O)NC(=O)[C@H]4CCCN4C(=O)[C@@H](CCCNC(=N)N)NC(=O)[C@@H](CSSC[C@@H](NC(=O)[C@H](N)CC(=O)O)C(=O)N[C@H](CC(C)C)C(=O)NCC(=O)N[C@H](Cc4ccccc4)C(=O)N[C@H](CCSC)C(=O)N[C@H](CCCNC(=N)N)C(=O)N[C@H](CCCCN)C(=O)N2)NC(=O)[C@@H](CSSC[C@H](C(=O)N[C@H](CCCCN)C(=O)N[C@H](Cc2ccc(O)cc2)C(=O)N[C@@H](C(=O)N[C@H](Cc2ccccc2)C(N)=O)C(C)C)NC(=O)[C@@H](Cc2c[nH]c4ccccc24)NC(=O)[C@@H](CCCCN)NC(=O)[C@@H](Cc2c[nH]cn2)NC(=O)[C@@H]([C@H](C)O)NC(=O)[C@@H](CCCNC(=N)N)NC(=O)[C@@H](CO)NC3=O)NC(=O)[C@@H](CCCCN)NC(=O)[C@@H](CC(=O)O)NC(=O)[C@@H](CC(N)=O)NC(=O)[C@@H](CC(=O)O)NC(=O)[C@H]2CCCN2C1=O` [compound 2] was tested, and the IC50 (hNav1.5; IWQ Use Nav1.5 (μM)) was 11.3 µM.
Work on `CC[C@H](C)[C@@H]1NC(=O)[C@@H]2CSSC[C@@H]3NC(=O)[C@H](C(C)C)NC(=O)[C@H](CC(C)C)NC(=O)[C@H](CC(N)=O)NC(=O)[C@@H]4CCCN4C(=O)[C@H](CCCNC(=N)N)NC(=O)[C@H](CSSC[C@H](NC(=O)[C@@H](N)CC(=O)O)C(=O)N[C@@H](CC(C)C)C(=O)NCC(=O)N[C@@H](Cc4ccccc4)C(=O)N[C@@H](CCSC)C(=O)N[C@@H](CCCNC(=N)N)C(=O)N[C@@H](CCCCN)C(=O)N2)NC(=O)[C@H](CSSC[C@@H](C(=O)N[C@@H](CCCCN)C(=O)N[C@@H](Cc2ccc(O)cc2)C(=O)N[C@H](C(=O)N[C@@H](Cc2ccccc2)C(N)=O)C(C)C)NC(=O)[C@H](Cc2c[nH]c4ccccc24)NC(=O)[C@H](CCCCN)NC(=O)[C@H](Cc2c[nH]cn2)NC(=O)[C@H](Cc2c[nH]cn2)NC(=O)[C@H](CCCNC(=N)N)NC(=O)[C@H](CO)NC3=O)NC(=O)[C@H](CCCCN)NC(=O)[C@H](CC(=O)O)NC(=O)[C@H](CC(N)=O)NC(=O)[C@H](CC(=O)O)NC(=O)[C@@H]2CCCN2C1=O` [compound 337] (H-DCLGFMRKCIPDNDKCCRPNLVCSRHHKWCKYVF-NH2; disulfide 2-17, 9-23, 16-30) yielded an IC50 (hNav1.5; Table 22, IonWorks Quattro, use, […], read-out: IWQ Use Nav1.5) of 4.52 µM.
Compound `CC[C@H](C)[C@@H]1NC(=O)[C@@H]2CSSC[C@@H]3NC(=O)[C@H](C(C)C)NC(=O)[C@H](CC(C)C)NC(=O)[C@H](CC(N)=O)NC(=O)[C@@H]4CCCN4C(=O)[C@H](CCCNC(=N)N)NC(=O)[C@H](CSSC[C@H](NC(=O)[C@@H](N)CC(=O)O)C(=O)N[C@@H](CC(C)C)C(=O)NCC(=O)N[C@@H](Cc4ccccc4)C(=O)N[C@@H](CCSC)C(=O)N[C@@H](CCCNC(=N)N)C(=O)N[C@@H](CCCCN)C(=O)N2)NC(=O)[C@H](CSSC[C@@H](C(=O)N[C@@H](CCCCN)C(=O)N[C@@H](Cc2ccc(O)cc2)C(=O)N[C@H](C(=O)N[C@H](Cc2ccccc2)C(N)=O)C(C)C)NC(=O)[C@H](Cc2c[nH]c4ccccc24)NC(=O)[C@H](CCCCN)NC(=O)[C@H](Cc2c[nH]cn2)NC(=O)[C@H]([C@@H](C)O)NC(=O)[C@H](CCCNC(=N)N)NC(=O)[C@H](CO)NC3=O)NC(=O)[C@H](CCCCN)NC(=O)[C@H](CC(=O)O)NC(=O)[C@H](CC(N)=O)NC(=O)[C@H](CC(=O)O)NC(=O)[C@@H]2CCCN2C1=O` [compound 404] has an IC50 (hNav1.5; IWQ Use Nav1.5 (μM)) of 20.7 µM.
Compound `CC[C@H](C)[C@@H]1NC(=O)[C@@H]2CSSC[C@@H]3NC(=O)[C@H](C(C)C)NC(=O)[C@H](CC(C)C)NC(=O)[C@H](CC(N)=O)NC(=O)[C@@H]4CCCN4C(=O)[C@H](CCCNC(=N)N)NC(=O)[C@H](CSSC[C@H](NC(=O)[C@@H](N)CC(=O)O)C(=O)N[C@@H](CC(C)C)C(=O)NCC(=O)N[C@@H](C)C(=O)N[C@@H](CCSC)C(=O)N[C@@H](CCCNC(=N)N)C(=O)N[C@@H](CCCCN)C(=O)N2)NC(=O)[C@H](CSSC[C@@H](C(=O)N[C@@H](CCCCN)C(=O)N[C@@H](Cc2ccc(O)cc2)C(=O)N[C@H](C(=O)N[C@@H](Cc2ccccc2)C(N)=O)C(C)C)NC(=O)[C@H](Cc2c[nH]c4ccccc24)NC(=O)[C@H](CCC(=O)O)NC(=O)[C@H](Cc2c[nH]cn2)NC(=O)[C@H]([C@@H](C)O)NC(=O)[C@H](CCCNC(=N)N)NC(=O)[C@H](CO)NC3=O)NC(=O)[C@H](CCCCN)NC(=O)[C@H](CC(=O)O)NC(=O)[C@H](CC(N)=O)NC(=O)[C@H](CC(=O)O)NC(=O)[C@@H]2CCCN2C1=O` [compound 691] has an IC50 (hNav1.5; IonWorks Quattro, use-dependent protocol, hNav1.5, read-out: IWQ Use Nav1.5) greater than 5 µM.
